In PubChem BioAssay AID1259407 (Chemical Carcinogenesis Research Information System (CCRIS), 2018):
Calls of active or inactive are those of the source. No rule for the calls is given here.

Tested on: CCRIS mutagenicity, Ames/micronucleus/aberration tests
Experiment: CCRIS mutagenicity studies
[1] = Test System: AMES SALMONELLA TYPHIMURIUM, Strain/Indicator: TA98, Metabolic Activation: NONE, Method: PREINCUBATION
[2] = Test System: AMES SALMONELLA TYPHIMURIUM, Strain/Indicator: TA98, Metabolic Activation: RAT, LIVER, S-9, AROCLOR 1254, Method: PREINCUBATION
[3] = Test System: AMES SALMONELLA TYPHIMURIUM, Strain/Indicator: TA100, Metabolic Activation: NONE, Method: PREINCUBATION
[4] = Test System: AMES SALMONELLA TYPHIMURIUM, Strain/Indicator: TA100, Metabolic Activation: RAT, LIVER, S-9, AROCLOR 1254, Method: PREINCUBATION
[5] = Test System: AMES SALMONELLA TYPHIMURIUM, Strain/Indicator: TA98, Metabolic Activation: NONE, Method: STANDARD PLATE
[6] = Test System: AMES SALMONELLA TYPHIMURIUM, Strain/Indicator: TA98, Metabolic Activation: RAT, LIVER, S-9, AROCLOR 1254, Method: STANDARD PLATE
[7] = Test System: AMES SALMONELLA TYPHIMURIUM, Strain/Indicator: TA100, Metabolic Activation: NONE, Method: STANDARD PLATE
[8] = Test System: AMES SALMONELLA TYPHIMURIUM, Strain/Indicator: TA100, Metabolic Activation: RAT, LIVER, S-9, AROCLOR 1254, Method: STANDARD PLATE

Measured: mutagenic call

COc1ccc2c3c([nH]c2c1)C(C)=NCC3
inactive: Test System: AMES SALMONELLA TYPHIMURIUM, Strain/Indicator: TA97, Metabolic Activation: NONE, Method: PREINCUBATION inactive; negative | Test System: AMES SALMONELLA TYPHIMURIUM, Strain/Indicator: TA97, Metabolic Activation: RAT, LIVER, S-9, AROCLOR 1254, Method: PREINCUBATION inactive; negative | [1] inactive; negative | [2] inactive; negative | [3] inactive; negative | [4] inactive; negative | Test System: AMES SALMONELLA TYPHIMURIUM, Strain/Indicator: TA102, Metabolic Activation: NONE, Method: PREINCUBATION inactive; negative | Test System: AMES SALMONELLA TYPHIMURIUM, Strain/Indicator: TA102, Metabolic Activation: RAT, LIVER, S-9, AROCLOR 1254, Method: PREINCUBATION inactive; negative

Nc1cc([N+](=O)[O-])cc([N+](=O)[O-])c1
active: [1] active; positive | [5] active; positive | [6] active; positive | Test System: AMES SALMONELLA TYPHIMURIUM, Strain/Indicator: TA98, Metabolic Activation: RAT, LIVER, S-9, KANECHLOR 500, Method: PREINCUBATION active; positive | [3] active; positive | [7] active; positive | [8] active; positive | Test System: AMES SALMONELLA TYPHIMURIUM, Strain/Indicator: TA100, Metabolic Activation: RAT, LIVER, S-9, KANECHLOR 500, Method: PREINCUBATION active; positive

O=C(O)[C@@H]1CSCN1
inactive: Test System: AMES SALMONELLA TYPHIMURIUM, Strain/Indicator: TA102, Metabolic Activation: NONE, Method: STANDARD PLATE inactive; negative | Test System: AMES SALMONELLA TYPHIMURIUM, Strain/Indicator: TA102, Metabolic Activation: RAT, LIVER, S-9, PHENOBARBITAL, Method: STANDARD PLATE inactive; negative | Test System: AMES SALMONELLA TYPHIMURIUM, Strain/Indicator: TA104, Metabolic Activation: NONE, Method: STANDARD PLATE inactive; negative | Test System: AMES SALMONELLA TYPHIMURIUM, Strain/Indicator: TA104, Metabolic Activation: RAT, LIVER, S-9, PHENOBARBITAL, Method: STANDARD PLATE inactive; negative

CC[C@H]1OC(=O)[C@H](C)[C@@H](O[C@H]2C[C@@](C)(OC)[C@@H](O)[C@H](C)O2)[C@H](C)[C@@H](O[C@@H]2O[C@H](C)C[C@H](N(C)C)[C@H]2O)[C@](C)(OC)C[C@@H](C)C(=O)[C@H](C)[C@@H](O)[C@]1(C)O
inactive: End Point: AMES SALMONELLA TYPHIMURIUM, Test System: TA98, Metabolic Activation: NONE, Method: STANDARD PLATE inactive; negative | End Point: AMES SALMONELLA TYPHIMURIUM, Test System: TA100, Metabolic Activation: NONE, Method: STANDARD PLATE inactive; negative

c1ccc(Oc2ccccc2)cc1
inactive: Test System: AMES SALMONELLA TYPHIMURIUM, Strain/Indicator: TA98, Metabolic Activation: HAMSTER, LIVER, S-9, AROCLOR 1254, Method: PREINCUBATION inactive; negative | [1] inactive; negative | [2] inactive; negative | Test System: AMES SALMONELLA TYPHIMURIUM, Strain/Indicator: TA100, Metabolic Activation: HAMSTER, LIVER, S-9, AROCLOR 1254, Method: PREINCUBATION inactive; negative | [3] inactive; negative | [4] inactive; negative | Test System: AMES SALMONELLA TYPHIMURIUM, Strain/Indicator: TA1535, Metabolic Activation: HAMSTER, LIVER, S-9, AROCLOR 1254, Method: PREINCUBATION inactive; negative | Test System: AMES SALMONELLA TYPHIMURIUM, Strain/Indicator: TA1535, Metabolic Activation: NONE, Method: PREINCUBATION inactive; negative | Test System: AMES SALMONELLA TYPHIMURIUM, Strain/Indicator: TA1535, Metabolic Activation: RAT, LIVER, S-9, AROCLOR 1254, Method: PREINCUBATION inactive; negative | Test System: AMES SALMONELLA TYPHIMURIUM, Strain/Indicator: TA1537, Metabolic Activation: HAMSTER, LIVER, S-9, AROCLOR 1254, Method: PREINCUBATION inactive; negative | Test System: AMES SALMONELLA TYPHIMURIUM, Strain/Indicator: TA1537, Metabolic Activation: NONE, Method: PREINCUBATION inactive; negative | Test System: AMES SALMONELLA TYPHIMURIUM, Strain/Indicator: TA1537, Metabolic Activation: RAT, LIVER, S-9, AROCLOR 1254, Method: PREINCUBATION inactive; negative

C=CCc1ccc(O)cc1
inactive: Test System: AMES SALMONELLA TYPHIMURIUM, Strain/Indicator: TA98, Metabolic Activation: HAMSTER, LIVER, S-9, AROCLOR 1254, Method: STANDARD PLATE inactive; negative | [5] inactive; negative | [6] inactive; negative | Test System: AMES SALMONELLA TYPHIMURIUM, Strain/Indicator: TA100, Metabolic Activation: HAMSTER, LIVER, S-9, AROCLOR 1254, Method: STANDARD PLATE inactive; negative | [7] inactive; negative | [8] inactive; negative | Test System: AMES SALMONELLA TYPHIMURIUM, Strain/Indicator: TA1535, Metabolic Activation: HAMSTER, LIVER, S-9, AROCLOR 1254, Method: STANDARD PLATE inactive; negative | Test System: AMES SALMONELLA TYPHIMURIUM, Strain/Indicator: TA1535, Metabolic Activation: NONE, Method: STANDARD PLATE inactive; negative | Test System: AMES SALMONELLA TYPHIMURIUM, Strain/Indicator: TA1535, Metabolic Activation: RAT, LIVER, S-9, AROCLOR 1254, Method: STANDARD PLATE inactive; negative | Test System: AMES SALMONELLA TYPHIMURIUM, Strain/Indicator: TA1537, Metabolic Activation: HAMSTER, LIVER, S-9, AROCLOR 1254, Method: STANDARD PLATE inactive; negative | Test System: AMES SALMONELLA TYPHIMURIUM, Strain/Indicator: TA1537, Metabolic Activation: NONE, Method: STANDARD PLATE inactive; negative | Test System: AMES SALMONELLA TYPHIMURIUM, Strain/Indicator: TA1537, Metabolic Activation: RAT, LIVER, S-9, AROCLOR 1254, Method: STANDARD PLATE inactive; negative | Test System: AMES SALMONELLA TYPHIMURIUM, Strain/Indicator: TA1538, Metabolic Activation: HAMSTER, LIVER, S-9, AROCLOR 1254, Method: STANDARD PLATE inactive; negative | Test System: AMES SALMONELLA TYPHIMURIUM, Strain/Indicator: TA1538, Metabolic Activation: NONE, Method: STANDARD PLATE inactive; negative | Test System: AMES SALMONELLA TYPHIMURIUM, Strain/Indicator: TA1538, Metabolic Activation: RAT, LIVER, S-9, AROCLOR 1254, Method: STANDARD PLATE inactive; negative | Test System: MOUSE LYMPHOMA, Strain/Indicator: L5178Y (TK+/TK-), Metabolic Activation: NONE, Method: SUSPENSION/PLATE inactive; negative. reevaluation of results: negative | Test System: MOUSE LYMPHOMA, Strain/Indicator: L5178Y (TK+/TK-), Metabolic Activation: RAT, LIVER, S-9, AROCLOR 1254, Method: SUSPENSION/PLATE inactive; negative. reevaluation of results: negative

CC(C)(O)CCc1ccc(O)c2c(=O)c3c(O)c4c(cc3oc12)O[C@H]1OC=C[C@@]41O
inactive: [5] inactive; negative | [7] inactive; negative
active: [6] active; positive | [8] active; positive

CC(=O)Oc1ccc2c(c1)OC1(C)OOC21C (configuration not stated)
active: [3] active; positive

OCc1ccc(Br)cc1
inactive: [7] inactive; negative
